One series deals with T1, sGC enzyme (Homo sapiens, UniProt Q02108+Q02153).
T1 construct: sGC enzyme activity values in HEK cells, determined by the GloSensor assay; host or cells: HEK293 cells stably expressing GloSensor 40F cGMP biosensor
T1 sequence (Q02153 1-619): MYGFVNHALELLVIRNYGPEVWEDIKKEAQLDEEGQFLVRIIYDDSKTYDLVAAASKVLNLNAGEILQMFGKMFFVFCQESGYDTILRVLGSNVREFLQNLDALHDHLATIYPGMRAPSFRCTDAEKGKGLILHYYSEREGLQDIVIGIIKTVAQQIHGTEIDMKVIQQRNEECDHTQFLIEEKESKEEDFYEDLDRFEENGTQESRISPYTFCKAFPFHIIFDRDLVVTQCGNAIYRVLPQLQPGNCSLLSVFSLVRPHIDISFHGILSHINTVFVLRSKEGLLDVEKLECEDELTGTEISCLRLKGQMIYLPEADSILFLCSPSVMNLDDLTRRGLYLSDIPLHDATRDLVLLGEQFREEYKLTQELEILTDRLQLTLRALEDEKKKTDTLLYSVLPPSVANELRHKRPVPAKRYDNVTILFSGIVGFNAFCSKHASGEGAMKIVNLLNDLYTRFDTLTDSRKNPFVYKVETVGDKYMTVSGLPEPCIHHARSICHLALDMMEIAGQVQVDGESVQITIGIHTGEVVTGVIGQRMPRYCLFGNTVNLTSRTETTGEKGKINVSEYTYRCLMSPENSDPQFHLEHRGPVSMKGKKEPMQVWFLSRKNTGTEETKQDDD
T1 sequence (Q02108 1-690): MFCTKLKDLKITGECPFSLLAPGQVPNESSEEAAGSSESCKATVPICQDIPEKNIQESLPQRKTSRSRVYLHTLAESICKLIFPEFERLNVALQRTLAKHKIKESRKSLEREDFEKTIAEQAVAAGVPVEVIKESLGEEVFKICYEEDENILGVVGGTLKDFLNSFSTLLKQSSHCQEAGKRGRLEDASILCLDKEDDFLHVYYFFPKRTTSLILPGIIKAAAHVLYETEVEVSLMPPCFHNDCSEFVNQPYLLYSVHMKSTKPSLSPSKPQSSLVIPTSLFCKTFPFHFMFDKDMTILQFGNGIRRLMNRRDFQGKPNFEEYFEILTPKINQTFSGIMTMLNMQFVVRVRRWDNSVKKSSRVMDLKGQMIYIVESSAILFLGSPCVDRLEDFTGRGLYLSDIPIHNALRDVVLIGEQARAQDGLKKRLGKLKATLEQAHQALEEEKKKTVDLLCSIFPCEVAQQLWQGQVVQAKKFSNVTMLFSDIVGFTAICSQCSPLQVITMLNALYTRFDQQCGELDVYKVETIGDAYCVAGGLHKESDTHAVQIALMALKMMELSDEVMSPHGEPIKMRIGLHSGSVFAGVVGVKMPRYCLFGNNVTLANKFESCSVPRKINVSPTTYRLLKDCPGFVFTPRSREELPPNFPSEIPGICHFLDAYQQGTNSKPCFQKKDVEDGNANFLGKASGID
Nature of the series: cGMP GloSensor cell-based assay, 384-well format (Example 2a). The settings on record: HEK293 GloSensor 40F cGMP cells; 10 μM DETA-NONOate; 50% of high control (30 μM Compound Y); read-out: Abs EC50. The text has this:
Human embryonic kidney cells (HEK293) cells expressing GloSensor™ 40F cGMP (Part No: CS182801, Promega) were used to evaluate the activity of test compounds. The luminescent biosensors (engineered luciferase) that were incorporated into these cells detect cGMP formed by the compounds stimulating the sGC enzyme and emit luminescence.
cGMP GloSensor cells were maintained in Dulbecco's Modification of Eagle's Medium (DMEM) supplemented with fetal bovine serum (FBS, 10% final) and hygromycine (200 ug/ml). The day before assay, cells were plated in DMEM with 10% FBS in a 50 μL volume at a density of 1.5×10^4 cells/well in a poly-D-lysine coated 384-well flat white-bottom plate (Corning Cat No 35661). Cells were incubated overnight at 37° C. in a humidified chamber with 5% CO2. The next day, medium was removed and cells were replaced with 40 ul/well of GloSensor™, 2 mM (Promega Cat No E1291). Cells were treated for 90 minutes at 25° C. to allow the substrate to equilibrate in the cells. Test compounds and Diethylenetriamine NONOate (DETA-NONOate, or DETA-NO) was diluted to 3 mM (20×) in serum-free CO2 independent medium and serially diluted at 4× dilutions to create 5× dose curve from which 10 ul was added to the wells (x μM concentration for test compound solution and 10 μM concentration for DETA-NONOate solution; wherein x is one of the following final concentrations: 30000 nM, 7500 nM, 1875 nM, 468.8 nM, 117.2 nM, 29.29 nM, 7.320 nM, 1.830 nM, 0.460 nM, 0.114 nM, and 0.029 nM).
For the kinetics studies, luminescense was measured right away for 0.2 sec per well with Envision (Perkin Elmer). For endpoint SAR screening, data were collected after 55 min incubation at room temperature.
Data were normalized to a high control using the following equation: 100*(Sample−Low Control)/(High Control−Low Control), where the low control is the average of 16 samples treated with 1% DMSO, and the high control is the average of 16 samples treated with 30 μM of Compound Y depicted below. Data were fit using a 4-parameter fit (log(agonist) vs. response—variable slope) using GraphPad Prism Software v.5. n=2 for all compounds. The Absolute (Abs) EC50 was interpolated from the curve fit and is defined as the concentration at which a given compound elicits 50% of the high control response after data normalization as indicated above. Compounds failing to elicit a minimum response of 50% are reported as >30 μM or ND. For compounds run in duplicate or n higher than 2, the result herein given is the geometric mean of the several results obtained.

In series [1] the test system is cGMP in rat primary neurons. In words: cGMP neuronal cell-based assay (Example 3). The note with it: Primary neuron; rat primary hippocampal neurons; 30 μM DETA-NO; cGMP by LC-MS/MS; 50% of high control (10 μM Compound Y); read-out: Abs EC50. How it is done:
Rat primary neurons were isolated from fetuses of 18-day pregnant Sprague-Dawley females. The fetuses were collected in Hanks' balanced salt solution (HBSS) and brains were rapidly removed. The cerebral hippocampi were isolated and mechanically fragmented. Further tissue digestion was performed with 0.25% (wt/vol) trypsin solution in HBSS without Ca2+ and Mg2+ for 15 min at 37° C. After trypsination, cells were washed and resuspended in neurobasal medium supplemented with 0.5 mM L-glutamine, 12.5 uM glutamic acid, 2% B-27 and 100 U/mL penicillin, and 100 μg/mL streptomycin. Cells were plated at a density of 4×10^4 cells/well in a poly-D-lysine coated 384-well flat clear-bottom plate (Corning Cat No 354662). Cells were incubated 6-7 days at 37° C. in a humidified chamber with 5% CO2. Media was removed and cells were washed 1× with HBSS containing Ca2+ and Mg2+, and replaced with 40 uL HBSS containing 0.5 mM IBMX, and incubated for 15 minutes at 37° C. 10 uL of a 5× stock of test compounds with diethylenetriamine NONOate (DETA-NO) was added. Final concentration of DETA-NO was 30 μM. Cells were incubated for 20 min at 37° C. Medium was removed, 50 uL of ice-cold 10% acetic acid was added, and incubated for 60 minutes at 4° C. Following centrifugation at 4° C. for 5 minutes at 1000×g to pellet cell debris, the supernatant was aspirated to a clean plate and the samples were analyzed for cGMP content. cGMP concentrations were determined from each sample using LC-MS/MS.
Data were normalized to a high control using the following equation: 100*(Sample−Low Control)/(High Control−Low Control), where the low control is the average of 15 samples treated with 1% DMSO, and the high control is the average of 15 samples treated with 10 μM a known sGC stimulator Compound Y. Data were fit using a 4-parameter fit (log(agonist) vs. response—variable slope) using GraphPad Prism Software v.5. n=2 for all compounds. The Absolute EC50 was interpolated from the curve fit and is defined as the concentration at which a given compound elicits 50% of the high control response. Compounds failing to elicit a minimum response of 50% are reported as >30 μM. For compounds run in duplicate or n higher than 2, the result herein given is the geometric mean of the several results obtained.

Series [2] is described as follows: Rat cerebrospinal fluid (CSF) pharmacokinetic properties (Example 4). Type of series: in vivo. The settings on record: male, Sprague-Dawley, 10 mg/kg PO, 1 h; for Kp uu at 1 h: unbound CSF/unbound plasma, read-out: Kp,uu (@ 1 h); for concentration at 1 h: CSF, read-out: CSF Conc. (nM @ 1 h). As for the experimental part:
Protocol PK in rats was determined following oral dosing. For the oral (PO) experiments, a group of 6 male Sprague-Dawley rats with an indwelling catheter placed in the cistema magna were used. The PO group was dosed with 10 mg/kg or 1 mg/kg of a compound formulated as a solution in PEG400. PO doses were administered by oral gavage and delivered to the stomach using a syringe and gavage tube. Following oral dosage administration, the gavage tube was flushed with approximately 0.5 mL of water to ensure complete delivery of the full dose.
Plasma samples were collected as follows: samples of CSF and blood were collected at 1 hour, 2, and optionally at 4 hours post-dosing. CSF samples (0.05 mL) were collected through the intracisternal catheter. Blood samples (0.25 mL) were collected through retro-orbital sampling. These samples were kept on ice until processed for plasma. Blood samples were centrifuged at 3200 rpm for 5 minutes at approximately 5° C. within 1 hour of collection. Plasma was directly transferred to a 96-well plate tube (0.125 mL). Plug caps were placed on the tubes and the tubes frozen at approximately −70° C. and stored until analysis. Plasma was collected and analyzed for the presence of a compound.
Quantitation of Compounds. The compound in question and the internal standard were extracted from plasma and CSF by precipitation. Samples were analyzed using liquid chromatography (LC) with tandem mass spectrometric detection (MS/MS) using electrospray ionization. The standard curve range was from 1 to 1000 ng/mL. Results of the compounds described herein in this assay are illustrated in Table 4a below (10 mg/kg dose) and Tables 4b and 4c below (1 mg/kg).
Kp,uu is defined as the concentration ratio of unbound drug in CSF to unbound drug in plasma. Unbound drug in plasma (or free plasma concentration) is calculated by multiplying the total plasma concentration by the unbound fraction as determined by plasma protein binding. The CSF concentration is then divided by the free plasma concentration to determine the Kp,uu. (See e.g., Di et al., J. Med. Chem., 56, 2-12 (2013))

Each structure is given as a SMILES string.

For the compound `Fc1ccccc1Cc1nc(-c2nc(C(F)(F)C(F)(F)F)n[nH]2)cn2ccnc12` [Compound I-5, 8-(2-Fluorobenzyl)-6-(3-(perfluoroethyl)-1H-1,2,4-triazol-5-yl)imidazo[1,2-a]pyrazine], the EC50 (on sGC enzyme; in series [1]) was no more than 100 nM throughout.
Regarding `FC(F)(F)c1n[nH]c(-c2cn3ccnc3c(Cc3ccccc3)n2)n1` [Compound I-6, 8-Benzyl-6-(3-(trifluoromethyl)-1H-1,2,4-triazol-5-yl)imidazo[1,2-a]pyrazine], the EC50 (as a rule, the concentration needed to bring the measured effect to its halfway point) was 100 to 1000 nM on sGC enzyme and no more than 100 nM in series [1].
In the same order, the values of `FC(F)c1n[nH]c(-c2cn3ccnc3c(Cc3ccccc3)n2)n1` [Compound I-7, 8-Benzyl-6-(3-(difluoromethyl)-1H-1,2,4-triazol-5-yl)imidazo[1,2-a]pyrazine] are 100 to 1000 nM and 100 to 1000 nM.
Consider `Fc1ccc(F)c(Cc2nc(-c3nc(C(F)(F)F)n[nH]3)cn3ccnc23)c1` [Compound I-8, 8-(2,5-Difluorobenzyl)-6-(3-(trifluoromethyl)-1H-1,2,4-triazol-5-yl)imidazo[1,2-a]pyrazine], for which the EC50 (at sGC enzyme; in series [1]) was no more than 100 nM in each case.
As for `Fc1ccc(F)c(Cc2nc(-c3nc(C(F)F)n[nH]3)cn3ccnc23)c1` [Compound I-9, 8-(2,5-Difluorobenzyl)-6-(3-(difluoromethyl)-1H-1,2,4-triazol-5-yl)imidazo[1,2-a]pyrazine], the half-maximal effective concentration (EC50) (at sGC enzyme; in series [1]) was no more than 100 nM each time.
As to `Fc1ccc(Cc2nc(-c3nc(C(F)(F)F)n[nH]3)cn3ccnc23)cc1` [Compound I-12, 8-(4-Fluorobenzyl)-6-(3-(trifluoromethyl)-1H-1,2,4-triazol-5-yl)imidazo[1,2-a]pyrazine], the EC50 (at sGC enzyme; in series [1]) was 100 to 1000 nM each time.
As to `FC(F)(F)c1n[nH]c(-c2cn3ccnc3c(CCC(F)(F)C(F)(F)F)n2)n1` [Compound I-13, 8-(3,3,4,4,4-Pentafluorobutyl)-6-(3-(trifluoromethyl)-1H-1,2,4-triazol-5-yl)imidazo[1,2-a]pyrazine], the concentration giving a half-maximal response (EC50) (at sGC enzyme; in series [1]) was greater than 1000 nM in each case.
Turning to `Cc1ccc(Cc2nc(-c3nc(C(F)(F)F)n[nH]3)cn3ccnc23)cc1F` [Compound I-27, 8-(3-Fluoro-4-methylbenzyl)-6-(3-(trifluoromethyl)-1H-1,2,4-triazol-5-yl)imidazo[1,2-a]pyrazine], the concentration for a half-maximal effect (EC50) on sGC enzyme is no more than 100 nM. In series [2], the Kp uu at 1 h was 0.2 and the concentration at 1 h came out at 41 nM.
For `Cc1ccc(Cc2nc(-c3nc(C(F)F)n[nH]3)cn3ccnc23)cc1F` [Compound I-28, 6-(3-(Difluoromethyl)-1H-1,2,4-triazol-5-yl)-8-(3-fluoro-4-methylbenzyl)imidazo[1,2-a]pyrazine], in that order: no more than 100 nM, 0.2 and 20 nM.
